System: APPT668A and APPT668E
Assay: APP processing in CHO cells expressing APP T668A or T668E
Assay type: cell-based, human
Details: 30 μM
Text: To assess whether or not the decrease in phosphorylated APP seen in DIF-1 treated cells contributed mechanistically to the reduction of maturation, secretion and metabolic processing of APP^751, mutants were generated using APP^751 in which T724 (APP^751 numbering) was mutated to either an alanine residue such that phosphorylation could not occur, or a glutamic acid residue that should mimic constitutive phosphorylation of APP. APP^751, Isoform B, NM_201413 was used as a template. We essentially used Stratagene's QuickChange® Site-Directed Mutagenesis Kit (Catalog #200518) to create the desired mutations as recommended by the manufacturer with the following exceptions. The APP^751 codon for threonine 724 (ACC) was mutated to code for Alanine (A) (GCC) and Glutamic Acid (E) (GAA), respectively. The following mutagenesis primers were used to create each mutation. […]
Cells were diluted and plated in multiple 10 cm tissue culture dishes and allowed to recover overnight in Dulbecco's modified Eagle's medium containing 4.5 mg/ml D-glucose supplemented with 10% fetal bovine serum and 100 units/ml penicillin, 100 μg/ml streptomycin, 2 mM L-glutamine (Sigma) at 37° C. in a 5% CO2 atmosphere. […] Protein extracts were assessed for APPT724A and APPT724E expression levels compared to naïve cells by western blot using polyclonal anti-APP C-terminal antibodies (C66). […]

Structure (SMILES): CCCCCC(=O)c1c(O)c(Cl)c(OC)c(Cl)c1O [DIF-1, 1-[3,5-dichloro-2,6-dihydroxy-4-methoxyphenyl]-1-hexanone]
- effect of DIF-1 on APP maturation and CTFs in T668A or T668E mutant APP: completely abolished the effect of DIF-1 on APP maturation and the reduction of both αCTF and βCTF levels
